{"source": "patent US9932637B2", "about": "“Genetic polymorphisms associated with cardiovascular disorders and drug response, methods of detection and uses thereof” (CELERA CORPORATION, priority 2003, dated 2018)", "tested_on": "patients with prior myocardial infarction (CARE study)", "experiment": "CARE: association of SNPs with pravastatin treatment in cardiovascular events prevention (logistic regression, odds ratio pravastatin vs placebo by genotype; Table 8)", "format": "in vivo, human", "details": "All Patients; for Coronary Artery Bypass or Revascularization, n/total (%) / Total Coronary Heart Disease Events, n/total (%) / Fatal/Non-fatal Atherosclerotic CV Disease, n/total (%) / Hosp. for Cardiovascular Disease, n/total (%) / Total Cardiovascular Disease Events, n/total (%) / Fatal/Non-fatal MI (def & prob), n/total (%) / Fatal CHD/Definite Non-fatal MI, n/total (%) / Non-fatal MI (def & prob), n/total (%): Prava", "source_text": "In order to identify genetic markers associated with acute coronary events (e.g. MI, stroke, unstable angina, congestive heart failure, etc.) or response to statin treatment for the prevention of coronary events, samples from the Cholesterol and Recurrent Events (CARE) study (a randomized multicentral double-blinded trial on secondary prevention of acute coronary events with pravastatin) (Sacks et al., 1991, Am. J. Cardiol. 68: 1436-1446) were genotyped. A well-documented myocardial infarction (MI) was one of the enrollment criteria for entry into the CARE study. Patients were enrolled in the CARE trial from 80 participating study centers. […] Patients were randomized to receive either 40 mg of pravastatin once daily or a matching placebo. The primary endpoint of the trial was death from coronary heart disease and the median duration of follow-up was 5.0 years (range, 4.0 to 6.2 years). […] Secondary endpoints of other related cardiovascular or metabolic disease events, and changes in clinical variables were also recorded in pravastatin-treated and placebo groups. All individuals included in the study had signed a written informed consent form and the study protocol was approved by the respective Institutional Review Boards (IRBs).\nFor genotyping SNPs in CARE patient samples, DNA was extracted from blood samples using conventional DNA extraction methods such as the QIA-amp kit from Qiagen. Genotypes were obtained on an ABI PRISM® 7900HT Sequence Detection PCR system (Applied Biosystems, Foster City, Calif.) by kinetic allele-specific PCR, similar to the method described by Germer et al. (Germer S., Holland M. J., Higuchi R. 2000, Genome Res. 10: 258-266).\nStatistical analysis for association of SNPs with pravastatin treatment in cardiovascular events prevention (Table 8) was carried out using an overall logistic regression model that included an intercept, a parameter for the effect of a genotype containing two rare alleles versus a genotype containing no rare alleles, a parameter for the effect of a genotype containing one rare allele versus a genotype containing no rare alleles, a parameter for the effect of use of pravastatin versus the use of placebo, and parameters for the interaction effects between SNP genotypes and pravastatin use. The test of the overall model is a chi-square test with two degrees of freedom for analyses containing all three genotypes, and one degree of freedom for analyses containing two genotypes.\nEffect sizes were estimated through odds ratios (pravastatin group versus placebo) for carriers of each genotype (groups of 0, 1, and 2 minor allele carriers). The effect was considered to be significant if p-value for testing whether any of the interactions between SNP genotypes and pravastatin use were <0.05. […] Odds ratios less than one indicate that the specific SNP allele has a protective effect and odds ratios greater than one indicate that the specific SNP allele has an adverse effect.", "key": {"[1]": {"details": "HLA-DPB1 hCV8851085, Coronary Artery Bypass or Revascularization"}, "[2]": {"details": "HLA-DPB1 hCV8851085, Fatal/Non-fatal Atherosclerotic CV Disease"}, "[3]": {"details": "HLA-DPB1 hCV8851085, Fatal/Non-fatal MI (def & prob)"}, "[4]": {"details": "HLA-DPB1 hCV8851085, Hosp. for Cardiovascular Disease"}, "[5]": {"details": "HLA-DPB1 hCV8851085, Total Cardiovascular Disease Events"}, "[6]": {"details": "HLA-DPB1 hCV8851085, Total Coronary Heart Disease Events"}, "[7]": {"details": "HLA-DPB1 hCV25651174, 2 Rare Alleles, n/total 20/144"}}, "data": [{"smiles": "CC[C@H](C)C(=O)O[C@H]1C[C@H](O)C=C2C=C[C@H](C)[C@H](CC[C@@H](O)C[C@@H](O)CC(=O)O)[C@H]21", "note": "[pravastatin]", "values": [{"measurement": "Coronary Artery Bypass or Revascularization, n/total (%)", "setting": "HLA-DPB1 hCV8851085, 0 Rare Alleles, n/total 129/919", "value": "(14.0%)"}, {"measurement": "Total Coronary Heart Disease Events, n/total (%)", "setting": "HLA-DPB1 hCV8851085, 0 Rare Alleles, n/total 263/919", "value": "(28.6%)"}, {"measurement": "Fatal/Non-fatal Atherosclerotic CV Disease, n/total (%)", "setting": "HLA-DPB1 hCV8851085, 0 Rare Alleles, n/total 301/919", "value": "(32.8%)"}, {"measurement": "Hosp. for Cardiovascular Disease, n/total (%)", "setting": "HLA-DPB1 hCV8851085, 0 Rare Alleles, n/total 363/919", "value": "(39.5%)"}, {"measurement": "Total Cardiovascular Disease Events, n/total (%)", "setting": "HLA-DPB1 hCV8851085, 0 Rare Alleles, n/total 374/919", "value": "(40.7%)"}, {"measurement": "Fatal/Non-fatal MI (def & prob), n/total (%)", "setting": "HLA-DPB1 hCV8851085, 1 Rare Allele, n/total 53/521", "value": "(10.2%)"}, {"measurement": "Coronary Artery Bypass or Revascularization, n/total (%)", "setting": "HLA-DPB1 hCV8851085, 1 Rare Allele, n/total 72/521", "value": "(13.8%)"}, {"measurement": "Total Coronary Heart Disease Events, n/total (%)", "setting": "HLA-DPB1 hCV8851085, 1 Rare Allele, n/total 151/521", "value": "(29.0%)"}, {"measurement": "Fatal/Non-fatal Atherosclerotic CV Disease, n/total (%)", "setting": "HLA-DPB1 hCV8851085, 1 Rare Allele, n/total 174/521", "value": "(33.4%)"}, {"measurement": "Hosp. for Cardiovascular Disease, n/total (%)", "setting": "HLA-DPB1 hCV8851085, 1 Rare Allele, n/total 209/521", "value": "(40.1%)"}, {"measurement": "Total Cardiovascular Disease Events, n/total (%)", "setting": "HLA-DPB1 hCV8851085, 1 Rare Allele, n/total 214/521", "value": "(41.1%)"}, {"measurement": "Fatal/Non-fatal MI (def & prob), n/total (%)", "setting": "HLA-DPB1 hCV8851085, 2 Rare Alleles, n/total 11/73", "value": "(15.1%)"}, {"measurement": "Coronary Artery Bypass or Revascularization, n/total (%)", "setting": "HLA-DPB1 hCV8851085, 2 Rare Alleles, n/total 17/73", "value": "(23.3%)"}, {"measurement": "Total Coronary Heart Disease Events, n/total (%)", "setting": "HLA-DPB1 hCV8851085, 2 Rare Alleles, n/total 26/73", "value": "(35.6%)"}, {"measurement": "Fatal/Non-fatal Atherosclerotic CV Disease, n/total (%)", "setting": "HLA-DPB1 hCV8851085, 2 Rare Alleles, n/total 29/73", "value": "(39.7%)"}, {"measurement": "Hosp. for Cardiovascular Disease, n/total (%)", "setting": "HLA-DPB1 hCV8851085, 2 Rare Alleles, n/total 33/73", "value": "(45.2%)"}, {"measurement": "Total Cardiovascular Disease Events, n/total (%)", "setting": "HLA-DPB1 hCV8851085, 2 Rare Alleles, n/total 35/73", "value": "(47.9%)"}, {"measurement": "Prava vs. Placebo Odds Ratio, 0 Rare Alleles", "setting": "[1]", "value": 0.68}, {"measurement": "Prava vs. Placebo Odds Ratio, 1 Rare Alleles", "setting": "[1]", "value": 0.60}, {"measurement": "Prava vs. Placebo Odds Ratio, 2 Rare Alleles", "setting": "[1]", "value": 3.54}, {"measurement": "Prava vs. Placebo Odds Ratio, 0 Rare Alleles", "setting": "[2]", "value": 0.70}, {"measurement": "Prava vs. Placebo Odds Ratio, 1 Rare Alleles", "setting": "[2]", "value": 0.79}, {"measurement": "Prava vs. Placebo Odds Ratio, 2 Rare Alleles", "setting": "[2]", "value": 2.12}, {"measurement": "Prava vs. Placebo Odds Ratio, 0 Rare Alleles", "setting": "[3]", "value": 0.57}, {"measurement": "Prava vs. Placebo Odds Ratio, 1 Rare Alleles", "setting": "[3]", "value": 0.75}, {"measurement": "Prava vs. Placebo Odds Ratio, 2 Rare Alleles", "setting": "[3]", "value": 2.07}, {"measurement": "Prava vs. Placebo Odds Ratio, 0 Rare Alleles", "setting": "[4]", "value": 0.71}, {"measurement": "Prava vs. Placebo Odds Ratio, 1 Rare Alleles", "setting": "[4]", "value": 0.74}, {"measurement": "Prava vs. Placebo Odds Ratio, 2 Rare Alleles", "setting": "[4]", "value": 1.79}, {"measurement": "Prava vs. Placebo Odds Ratio, 0 Rare Alleles", "setting": "[5]", "value": 0.70}, {"measurement": "Prava vs. Placebo Odds Ratio, 1 Rare Alleles", "setting": "[5]", "value": 0.74}, {"measurement": "Prava vs. Placebo Odds Ratio, 2 Rare Alleles", "setting": "[5]", "value": 1.77}, {"measurement": "Prava vs. Placebo Odds Ratio, 0 Rare Alleles", "setting": "[6]", "value": 0.72}, {"measurement": "Prava vs. Placebo Odds Ratio, 1 Rare Alleles", "setting": "[6]", "value": 0.76}, {"measurement": "Prava vs. Placebo Odds Ratio, 2 Rare Alleles", "setting": "[6]", "value": 2.25}, {"measurement": "Fatal CHD/Definite Non-fatal MI, n/total (%)", "setting": "HLA-DPB1 hCV25651174, 0 Rare Alleles, n/total 58/733", "value": "(7.9%)"}, {"measurement": "Non-fatal MI (def & prob), n/total (%)", "setting": "HLA-DPB1 hCV25651174, 0 Rare Alleles, n/total 63/733", "value": "(8.6%)"}, {"measurement": "Fatal/Non-fatal MI (def & prob), n/total (%)", "setting": "HLA-DPB1 hCV25651174, 0 Rare Alleles, n/total 65/733", "value": "(8.9%)"}, {"measurement": "Coronary Artery Bypass or Revascularization, n/total (%)", "setting": "HLA-DPB1 hCV25651174, 0 Rare Alleles, n/total 103/733", "value": "(14.1%)"}, {"measurement": "Total Coronary Heart Disease Events, n/total (%)", "setting": "HLA-DPB1 hCV25651174, 0 Rare Alleles, n/total 207/733", "value": "(28.2%)"}, {"measurement": "Fatal/Non-fatal Atherosclerotic CV Disease, n/total (%)", "setting": "HLA-DPB1 hCV25651174, 0 Rare Alleles, n/total 230/733", "value": "(31.4%)"}, {"measurement": "Hosp. for Cardiovascular Disease, n/total (%)", "setting": "HLA-DPB1 hCV25651174, 0 Rare Alleles, n/total 282/733", "value": "(38.5%)"}, {"measurement": "Total Cardiovascular Disease Events, n/total (%)", "setting": "HLA-DPB1 hCV25651174, 0 Rare Alleles, n/total 291/733", "value": "(39.7%)"}, {"measurement": "Non-fatal MI (def & prob), n/total (%)", "setting": "HLA-DPB1 hCV25651174, 1 Rare Allele, n/total 55/632", "value": "(8.7%)"}, {"measurement": "Fatal/Non-fatal MI (def & prob), n/total (%)", "setting": "HLA-DPB1 hCV25651174, 1 Rare Allele, n/total 61/632", "value": "(9.7%)"}, {"measurement": "Fatal CHD/Definite Non-fatal MI, n/total (%)", "setting": "HLA-DPB1 hCV25651174, 1 Rare Allele, n/total 62/632", "value": "(9.8%)"}, {"measurement": "Coronary Artery Bypass or Revascularization, n/total (%)", "setting": "HLA-DPB1 hCV25651174, 1 Rare Allele, n/total 87/632", "value": "(13.8%)"}, {"measurement": "Total Coronary Heart Disease Events, n/total (%)", "setting": "HLA-DPB1 hCV25651174, 1 Rare Allele, n/total 182/632", "value": "(28.8%)"}, {"measurement": "Fatal/Non-fatal Atherosclerotic CV Disease, n/total (%)", "setting": "HLA-DPB1 hCV25651174, 1 Rare Allele, n/total 218/632", "value": "(34.5%)"}, {"measurement": "Hosp. for Cardiovascular Disease, n/total (%)", "setting": "HLA-DPB1 hCV25651174, 1 Rare Allele, n/total 259/632", "value": "(41.0%)"}, {"measurement": "Total Cardiovascular Disease Events, n/total (%)", "setting": "HLA-DPB1 hCV25651174, 1 Rare Allele, n/total 265/632", "value": "(41.9%)"}, {"measurement": "Non-fatal MI (def & prob), n/total (%)", "setting": "HLA-DPB1 hCV25651174, 2 Rare Alleles, n/total 16/144", "value": "(11.1%)"}, {"measurement": "Fatal CHD/Definite Non-fatal MI, n/total (%)", "setting": "[7]", "value": "(13.9%)"}, {"measurement": "Fatal/Non-fatal MI (def & prob), n/total (%)", "setting": "[7]", "value": "(13.9%)"}, {"measurement": "Coronary Artery Bypass or Revascularization, n/total (%)", "setting": "HLA-DPB1 hCV25651174, 2 Rare Alleles, n/total 27/144", "value": "(18.8%)"}, {"measurement": "Total Coronary Heart Disease Events, n/total (%)", "setting": "HLA-DPB1 hCV25651174, 2 Rare Alleles, n/total 50/144", "value": "(34.7%)"}, {"measurement": "Fatal/Non-fatal Atherosclerotic CV Disease, n/total (%)", "setting": "HLA-DPB1 hCV25651174, 2 Rare Alleles, n/total 54/144", "value": "(37.5%)"}, {"measurement": "Hosp. for Cardiovascular Disease, n/total (%)", "setting": "HLA-DPB1 hCV25651174, 2 Rare Alleles, n/total 61/144", "value": "(42.4%)"}]}]}
